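Test compounds were applied to cells in 96-well plates for 48 hours at 5 doses. Abbreviation: GI50, concentration required for 50% inhibition of growth.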 Active and inactive are the calls of the source. Rule as the data show it: active = GI50 up to about 1.1 µM and inactive = higher.
Assays:
Assay in all cases: DTP human tumour cell line panel, 48 h
ACHN = tested on: ACHN
CAKI-1 = tested on: CAKI-1
HCC 2998 = tested on: HCC 2998
HCT-15 = tested on: HCT-15
HL-60 = tested on: HL-60
HT-29 = tested on: HT-29
K562 = tested on: K562
MCF7 = tested on: MCF7
MOLT-4 = tested on: MOLT-4
NCI-H460 = tested on: NCI-H460
OVCAR-8 = tested on: OVCAR-8
SF-295 = tested on: SF-295
SF-539 = tested on: SF-539
SK-MEL-2 = tested on: SK-MEL-2
SK-OV-3 = tested on: SK-OV-3
SNB-19 = tested on: SNB-19
SNB-75 = tested on: SNB-75
UACC-257 = tested on: UACC-257
UACC-62 = tested on: UACC-62

Structure (SMILES)	GI50 (ACHN)	GI50 (CAKI-1)	GI50 (HCC 2998)	GI50 (HCT-15) [µM]	GI50 (HL-60)	GI50 (HT-29)	GI50 (K562)	GI50 (MCF7)	GI50 (MOLT-4)	GI50 (NCI-H460)	GI50 (OVCAR-8)	GI50 (SF-295)	GI50 (SF-539)	GI50 (SK-MEL-2)	GI50 (SK-OV-3)	GI50 (SNB-19)	GI50 (SNB-75)	GI50 (UACC-257)	GI50 (UACC-62)
Cc1c2c(c(C)n1-c1ccccc1)C(=O)N(CCCCN1CCN(c3ccccc3)CC1)C2=O	23.1 µM (inactive)	31.1 µM (inactive)	4.99 µM (inactive)	7.74	5.5 µM (inactive)	2.57 µM (inactive)	4.22 µM (inactive)	9.42 µM (inactive)	5.71 µM (inactive)	11.7 µM (inactive)	14.2 µM (inactive)	14.6 µM (inactive)	12 µM (inactive)	22.3 µM (inactive)	27.4 µM (inactive)	29 µM (inactive)	6.89 µM (inactive)	5.36 µM (inactive)	15.8 µM (inactive)
CCN1CCc2sc3nc(S)n(C)c(=O)c3c2C1	> 100 µM (inactive)	> 100 µM (inactive)	> 100 µM (inactive)	> 100	< 0.01 µM (active)	> 100 µM (inactive)	> 100 µM (inactive)	> 100 µM (inactive)	> 100 µM (inactive)	> 100 µM (inactive)	> 100 µM (inactive)	> 100 µM (inactive)	> 100 µM (inactive)	> 100 µM (inactive)	> 100 µM (inactive)	> 100 µM (inactive)	> 100 µM (inactive)	> 100 µM (inactive)	> 100 µM (inactive)
COc1cc2oc(=O)ccc2cc1C(=O)CC(C)C	> 100 µM (inactive)	22.9 µM (inactive)	> 100 µM (inactive)	> 100	39.2 µM (inactive)	> 100 µM (inactive)	> 100 µM (inactive)	73.8 µM (inactive)	57.8 µM (inactive)	62.5 µM (inactive)	> 100 µM (inactive)	> 100 µM (inactive)	> 100 µM (inactive)	> 100 µM (inactive)	> 100 µM (inactive)	56.1 µM (inactive)	78.7 µM (inactive)	> 100 µM (inactive)	> 100 µM (inactive)
COc1cc2c(cc1[N+](=O)[O-])C(=O)C(Br)(Br)CCC2	2.11 µM (inactive)	2.92 µM (inactive)	14 µM (inactive)	1.66	3.22 µM (inactive)	4.88 µM (inactive)	1.09 µM (active)	2.22 µM (inactive)	0.354 µM (active)	6.65 µM (inactive)	2.25 µM (inactive)	6.52 µM (inactive)	1.9 µM (inactive)	2.13 µM (inactive)	3.21 µM (inactive)	7.01 µM (inactive)	13.1 µM (inactive)	13.6 µM (inactive)	3.43 µM (inactive)
Clc1ccc(Cn2cc(/C=N/n3cnnc3)c3ccccc32)cc1	51.1 µM (inactive)	21.5 µM (inactive)	14.4 µM (inactive)	60.1	40.6 µM (inactive)	> 100 µM (inactive)	22.5 µM (inactive)	28.4 µM (inactive)	63.8 µM (inactive)	11.1 µM (inactive)	40.4 µM (inactive)	33.3 µM (inactive)	40.5 µM (inactive)	26.7 µM (inactive)	42.6 µM (inactive)	56 µM (inactive)	21.1 µM (inactive)	46.5 µM (inactive)	29 µM (inactive)
Cc1ccc(Nc2cc(=O)[nH]c(=S)[nH]2)cc1	> 100 µM (inactive)	> 100 µM (inactive)	> 100 µM (inactive)	> 100	> 100 µM (inactive)	> 100 µM (inactive)	> 100 µM (inactive)	> 100 µM (inactive)	> 100 µM (inactive)	> 100 µM (inactive)	> 100 µM (inactive)	> 100 µM (inactive)	> 100 µM (inactive)	> 100 µM (inactive)	> 100 µM (inactive)	> 100 µM (inactive)	> 100 µM (inactive)	> 100 µM (inactive)	> 100 µM (inactive)

From ChEMBL document CHEMBL1201862, “PubChem BioAssay data set” (2004)
